For one data set, the system named is MCF-7 cells. Description: MTT cytotoxicity, MCF-7. Type of data set: cell-based, human. The conditions noted are these: mean values. Here is the method:
(§1) All of the cell lines were obtained from the American Type Culture Collection (ATCC, Manassas, VA, USA) and grown in DMEM or RPMI culture medium containing 10% fetal bovine serum (v/v) in 5% CO2 at 37 °C.
(§2) Confluent cells in good state were cultured in 96-well plates (5–10 × 10^4 cells/mL). After cells were attached to the plate, compounds with various concentrations were applied at 37 °C for 72 h. Then, the cells were incubated with 10 μL of 5 mg/mL MTT reagent at 37 °C for 4 h. The supernatant was removed, and the cells were dissolved in 100 μL dimethyl sulfoxide and shaken for 5 min. Finally, the light absorption (OD) of the dissolved cells was measured at […].

Data set [1] has as its system HGC-27 cells. In words: MTT cytotoxicity, HGC-27. Particulars: 72 h, mean values. Format: cell-based, human. Here is the method: as §1, §2
The test system of the next data set is HeLa cells. In words: MTT cytotoxicity, HeLa. Format: cell-based, human. The conditions noted are these: 72 h, mean values. On the procedure: as §1, §2
A further data set deals with A549 cells. Description: MTT cytotoxicity, A549. Particulars: read-out: Cancer Cells IC50, A549. Format: cell-based. Here is the method: (§3) All of the cell lines were obtained from the American Type Culture Collection (ATCC, Manassas, VA, USA) and grown in DMEM or RPMI culture medium containing 10% fetal bovine serum (v/v) in 5% CO2 at 37 °C. Confluent cells in good state were cultured in 96-well plates (5–10 × 10^4 cells/mL). After cells were attached to the plate, compounds with various concentrations were applied at 37 °C for 72 h. […] The supernatant was removed, and the cells were dissolved in 100 μL dimethyl sulfoxide and shaken for 5 min.

The next data set deals with MRC-5 cells. In words: MTT cytotoxicity, MRC-5 normal cells. Type of data set: cell-based. On the procedure: as §3
A further data set deals with H460 cells. Description: MTT cytotoxicity, H460. Type of data set: cell-based. Particulars: read-out: Cancer Cells IC50, H460. On the procedure:
as §3

The subject of data set [2] is HGC-27 cells. In words: Flow cytometry cell cycle assay. Type of data set: cell-based, human. The conditions noted are these: 8 h of treatment. On the set-up: dose or concentration left out as unconfirmed. On the procedure:
Flow cytometry analysis was applied for cell cycle detection. Firstly, HGC-27 cell was adjusted to 1 × 10^6/mL, inoculated into a six-well plate and placed in an incubator at 37 °C containing 5% CO2 saturated humidity overnight. After the cells were fully attached to the plate, […] 9u and 9h were administrated to the cells for 8 h. After cells were collected and fixed with 70% ethanol, DAPI was applied to stain the cells at the final concentration of 1 μg/mL; subsequently, on-board testing by flow cytometry (Cytoflex S (Beckman Coulter, Brea, CA, USA)) was conducted.

The subject of data set [3] is HGC-27 cells. Description: Colony formation assay. Type of data set: cell-based, human. Particulars: treatment for two weeks, 5 μM and 10 μM, dose-dependent. Here is the method:
HGC-27 cells were cultured in a six-well plate (500 cells/well) and treated with 9u and 9h in 10% serum medium for two weeks, then fixed with methanol at room temperature and stained with 0.1% crystal violet, and images were scanned with a scanner.

In a further data set the test system is HepG2 cells. Description: MTT cytotoxicity, HepG2. Format: cell-based. The conditions noted are these: read-out: Cancer Cells IC50, HepG2. Here is the method: as §3
The test system of the next data set is cleaved PARP. In words: Western blot of cleaved PARP. Particulars: HGC-27 cells, different times and concentrations, 24 h. Format: cell-based, human. On the procedure:
Equal amounts of the lysates were electrophoresed on 10% SDS-PAGE gel and transferred onto PVDF membranes. After blocked with 5% nonfat milk in TBST (50 mM Tris-HCl (pH 7.4), 150 mM NaCl and 0.1% Tween 20) for 1 h, the membranes were incubated with various primary antibodies overnight and secondary antibodies for 3 h, finally detected using an ECL system. The blots were captured with ChemiDoc XRS+System (Bio-Rad, Hercules, CA, USA).

The next data set relates to MDA-MB231 cells. In words: MTT cytotoxicity, MDA-MB231. Type of data set: cell-based. Particulars: read-out: Cancer Cells IC50, MDA-MB231. On the procedure: as §3
A further data set deals with A875 cells. In words: MTT cytotoxicity, A875. The conditions noted are these: read-out: Cancer Cells IC50, A875. Type of data set: cell-based. On the procedure:
as §3

The test system of a further data set is LO2 cells. In words: MTT cytotoxicity, LO2 normal cells. Type of data set: cell-based. On the procedure: as §3

Bounds are passed on as bounds.

The source of these data is publication PMC8911927, “Synthesis and Biological Evaluation of 1-(2-(6-Methoxynaphthalen-2-yl)-6-methylnicotinoyl)-4-Substituted Semicarbazides/Thiosemicarbazides as Anti-Tumor Nur77 Modulators” (Molecules, 2022).

For “1-(2-(6-methoxynaphthalen-2-yl)-6-methylnicotinoyl)-4-m-tolylsemicarbazide [Compound 9e]”, the IC50 with MCF-7 cells (72 h) is 33.34 ± 0.12 µM; in the data set with HGC-27 cells [1], 49.24 ± 0.26 µM; in the data set with HeLa cells it was 24.65 ± 0.24 µM.
With “1-(2-(6-Methoxynaphthalen-2-yl)-6-methylnicotinoyl)-4-p-tolylsemicarbazide [Compound 9f]”, the concentration for half-maximal inhibition (IC50) in the data set on MCF-7 cells (72 h) was found to be 23.3 ± 0.1 µM; in the data set with HGC-27 cells [1] it was 29.4 ± 0.31 µM; in the data set with HeLa cells, 24.2 ± 0.61 µM.
In the case of “4-Cyclohexyl-1-(2-(6-methoxynaphthalen-2-yl)-6-methylnicotinoyl)thiosemicarbazide [Compound 9m]”, the figures for the half-maximal inhibitory concentration (IC50) with MCF-7 cells (72 h), with HGC-27 cells [1] and in the data set on HeLa cells were 35.4 ± 0.41 µM, 30.2 ± 0.61 µM and 34.5 ± 0.37 µM, respectively.
As for “1-(2-(6-Methoxynaphthalen-2-yl)-6-methylnicotinoyl)-4-phenethylthiosemicarbazide [Compound 9o]”, the IC50 with MCF-7 cells (72 h) is 35.2 ± 0.09 µM; in the data set with HGC-27 cells [1], 39.12 ± 0.21 µM; in the data set with HeLa cells, 20.7 ± 0.22 µM.
As to “4-Benzyl-1-(2-(6-methoxynaphthalen-2-yl)-6-methylnicotinoyl)semicarbazide [Compound 9c]”, the 50% inhibitory concentration (IC50) with MCF-7 cells (72 h) is 21.1 ± 0.52 µM; in the data set on HGC-27 cells [1], 23.16 ± 0.2 µM; with HeLa cells it was 25.3 ± 0.45 µM.
For “4-Cyclopentyl-1-(2-(6-methoxynaphthalen-2-yl)-6-methylnicotinoyl)semicarbazide [Compound 9a]” the same measures were 60.26 ± 0.11 µM, 38.39 ± 0.32 µM and 88.39 ± 0.22 µM.
For “4-(3,4-Dichlorophenyl)-1-(2-(6-methoxynaphthalen-2-yl)-6-methylnicotinoyl)thiosemicarbazide [Compound 9w]”, in that order: 10.9 ± 0.42 µM, 16.4 ± 0.31 µM and 10.7 ± 0.34 µM.
Consider “4-(2,4-Difluorophenyl)-1-(2-(6-methoxynaphthalen-2-yl)-6-methylnicotinoyl)thiosemicarbazide [Compound 9v]”, for which the IC50 with MCF-7 cells (72 h) was 11.6 ± 0.56 µM; in the data set with HGC-27 cells [1], 12.4 ± 0.25 µM; with HeLa cells, 10.1 ± 0.11 µM.
Take “4-(2-Chlorophenyl)-1-(2-(6-methoxynaphthalen-2-yl)-6-methylnicotinoyl)thiosemicarbazide [Compound 9u]”: the IC50 is 6.44 ± 0.07 µM with MCF-7 cells (72 h); 11.2 ± 0.46 µM in the data set with A549 cells; 22.1 ± 0.11 µM with MRC-5 cells; 4.56 ± 0.09 µM in the data set with HGC-27 cells [1]; 6.1 ± 0.5 µM in the data set on HeLa cells; 14 ± 0.38 µM with H460 cells. Besides, the 50% inhibitory concentration (IC50) in the data set on HepG2 cells came to 7.2 ± 0.11 µM; in the data set with MDA-MB231 cells, 21 ± 0.01 µM; with A875 cells it was 15.7 ± 0.11 µM; in the data set on LO2 cells, 41 ± 0.7 µM. For the same compound, the “Effect on cell cycle” value with HGC-27 cells [2] is “induced cell cycle blockage in G2-M phase”. The “Colony formation of HGC-27 cells” value in the data set with HGC-27 cells [3] is given as “completely inhibited colony formation”. Besides, in the data set with cleaved PARP, the PARP cleavage result is “induce the PARP cleavage in a dose-dependent and time-dependent manner”.
Consider “4-Benzyl-1-(2-(6-methoxynaphthalen-2-yl)-6-methylnicotinoyl)thiosemicarbazide [Compound 9n]”, for which the IC50 in the data set with MCF-7 cells (72 h) was 21.1 ± 0.32 µM; with HGC-27 cells [1], 23.16 ± 0.07 µM; in the data set on HeLa cells it was 25.33 ± 0.1 µM.
With “1-(2-(6-Methoxynaphthalen-2-yl)-6-methylnicotinoyl)-4-p-tolylthiosemicarbazide [Compound 9s]”, the concentration for half-maximal inhibition (IC50) stood at 19.3 ± 0.3 µM in the data set with MCF-7 cells (72 h), 10.4 ± 0.19 µM in the data set with HGC-27 cells [1] and 16.12 ± 0.07 µM with HeLa cells.
Consider “4-(3,5-Dimethylphenyl)-1-(2-(6-methoxynaphthalen-2-yl)-6-methylnicotinoyl)semicarbazide [Compound 9i]”, for which the IC50 was found to be 21.4 ± 0.25 µM with MCF-7 cells (72 h), 19.7 ± 0.31 µM in the data set on HGC-27 cells [1] and 20.1 ± 0.44 µM in the data set with HeLa cells.
`N.N.[Cl][Pt][Cl]` [Cisplatin, reference compound]: the IC50 in the data set on MCF-7 cells (72 h) was 10.5 ± 0.31 µM; in the data set on A549 cells, 9.3 ± 0.11 µM; in the data set with MRC-5 cells it was > 50 µM; in the data set on HGC-27 cells [1], 8.9 ± 0.2 µM; with HeLa cells it was 12.45 ± 0.11 µM; in the data set on H460 cells it was 16.6 ± 0.09 µM. The IC50 was 15.2 ± 0.29 µM with HepG2 cells, 20.2 ± 0.25 µM with MDA-MB231 cells, 21.2 ± 0.08 µM with A875 cells and > 50 µM with LO2 cells.
For “4-(3,5-Difluorophenyl)-1-(2-(6-methoxynaphthalen-2-yl)-6-methylnicotinoyl)semicarbazide [Compound 9j]”, the 50% inhibitory concentration (IC50) with MCF-7 cells (72 h) came out at 16.3 ± 0.34 µM; in the data set with HGC-27 cells [1], 16.6 ± 0.44 µM; in the data set on HeLa cells, 12.1 ± 0.21 µM.
Turning to “4-(3,4-Dichlorophenyl)-1-(2-(6-methoxynaphthalen-2-yl)-6-methylnicotinoyl)semicarbazide [Compound 9k]”, the half-maximal inhibitory concentration (IC50) in the data set on MCF-7 cells (72 h) is 11.6 ± 0.45 µM; in the data set on HGC-27 cells [1], 12.4 ± 0.5 µM; with HeLa cells, 10.1 ± 0.69 µM.
With “1-(2-(6-Methoxynaphthalen-2-yl)-6-methylnicotinoyl)-4-phenylthiosemicarbazide [Compound 9p]”, the results for the IC50 in the data set on MCF-7 cells (72 h), with HGC-27 cells [1] and in the data set with HeLa cells were 23.34 ± 0.21 µM, 19.24 ± 0.09 µM and 14.7 ± 0.31 µM, respectively.
For the compound “1-(2-(6-Methoxynaphthalen-2-yl)-6-methylnicotinoyl)-4-o-tolylsemicarbazide [Compound 9d]”, the figures for the half-maximal inhibitory concentration (IC50) in the data set with MCF-7 cells (72 h), with HGC-27 cells [1] and with HeLa cells were 35.2 ± 0.6 µM, 39.1 ± 0.72 µM and 20.7 ± 0.26 µM, respectively.
With “1-(2-(6-Methoxynaphthalen-2-yl)-6-methylnicotinoyl)-4-(4-methoxyphenyl)thiosemicarbazide [Compound 9t]”, the values for the IC50 with MCF-7 cells (72 h), in the data set on HGC-27 cells [1] and with HeLa cells were 11.4 µM, 16.7 µM and 10.1 ± 0.61 µM, respectively.
`CCCCCCNC(=S)NNC(=O)c1ccc(C)nc1-c1ccc2cc(OC)ccc2c1` [Compound 9l, 4-Hexyl-1-(2-(6-methoxynaphthalen-2-yl)-6-methylnicotinoyl)thiosemicarbazide]: the melting point fell in the range of 195 to 196 °C. In the data set on MCF-7 cells (Homo sapiens, MCF7, 72 h), this compound displayed a concentration for half-maximal inhibition (IC50) of 40.2 ± 0.33 µM. Further, in the data set on HGC-27 cells [1] (Homo sapiens), 38.1 ± 0.21 µM corresponded to half-maximal inhibition (IC50). Besides, the IC50 in the data set with HeLa cells (Homo sapiens) is 45.4 ± 0.11 µM.
Regarding “1-(2-(6-Methoxynaphthalen-2-yl)-6-methylnicotinoyl)-4-o-tolylthiosemicarbazide [Compound 9q]”, the values for the IC50 in the data set with MCF-7 cells (72 h), in the data set on HGC-27 cells [1] and with HeLa cells were 23.3 ± 0.21 µM, 19.4 ± 0.69 µM and 14.2 ± 0.22 µM, respectively.
Turning to “1-(2-(6-Methoxynaphthalen-2-yl)-6-methylnicotinoyl)-4-(4-methoxyphenyl)semicarbazide [Compound 9g]”, the IC50 in the data set on MCF-7 cells (72 h) was 18.4 ± 0.21 µM; with HGC-27 cells [1] it was 19.4 ± 0.63 µM; in the data set on HeLa cells, 20.2 ± 0.31 µM.
In the case of `COc1ccc2cc(-c3ccc(C(=O)NNC(=O)NC4CCCCC4)c(C)n3)ccc2c1` [Compound 9b], the melting point was in the range of 236 to 237 °C. The midpoint of inhibition in the data set with MCF-7 cells (Homo sapiens, MCF7, 72 h), the IC50, lay at 41.5 ± 0.78 µM. In addition, the IC50 in the data set on HGC-27 cells [1] (Homo sapiens) was found to be 50.26 ± 0.2 µM. In the data set on HeLa cells (Homo sapiens), this compound had an IC50 of 30.5 ± 0.4 µM.
On to “1-(2-(6-Methoxynaphthalen-2-yl)-6-methylnicotinoyl)-4-m-tolylthiosemicarbazide [Compound 9r]”, for which the values for the half-maximal inhibitory concentration (IC50) with MCF-7 cells (72 h), in the data set with HGC-27 cells [1] and in the data set on HeLa cells were 18.4 ± 0.41 µM, 19.4 ± 0.11 µM and 20.2 ± 0.24 µM, respectively.
